From patent publication US10093699B2, “Peptides with antimicrobial, anticancer and/or wound-healing promoting activities, pharmaceutical compositions containing the same, and use of the peptides with antimicrobial, anticancer and/or wound-healing promoting activities” (priority 2015, dated 2018)
Where a SMILES comes first, the peptide text is derived from it. [ ]: non-standard residue; d: D form. 2Nal = N[C@@H](Cc1ccc2ccccc2c1)C(=O)O

Legend:
human fibroblast (HFW) = assay: MTT cytotoxicity to normal fibroblasts; type: cell-based; conditions: MTT assay
Protocol: Human lung cancer line PC9 and A549, oral squamous cell carcinoma cell line OECM-1 were cultured in RPMI medium supplemented with 10% fetal bovine serum and antibiotic. Human tongue carcinoma cell line SAS, oral cancer cell line C9, and human diploid fibroblast (HFW) were cultured in DMEM medium supplemented with 10% fetal bovine serum and antibiotic. Cells were cultured in a humidified incubator containing 5% CO2 at 37° C.
The MTT assay was employed to determine the in vitro cytotoxicity. All cancer cell lines were seeded in 96-well plate with concentration 5000 cells/100 μl/well and incubated for 24 hours. HFW was seeded with 8000 cells/100 μl/well.
After medium was removed, 100 μl fresh medium containing peptide (ranging from 50 μM to 3.13 μM, HFW was treated with 75 μM and 100 μM peptide additionally) was added to the wells. Following 3, 12 or 24 hour incubation, fresh medium with MTT (0.5 mg/ml) was replaced and incubated for 3 hours. After medium/MTT was removed, DMSO was added at 100 μl for dissolving the formazan crystal. Cell survival rate was calculated by measuring the absorbance at 540 nm using Multi-labeled Microplate Reader (VICTOR3). For cancer cells, medium mixed with H2O2 (aq) represented positive control (all cells died) while medium only represented negative control. For normal cells, medium only represented positive control (all cells lived) while medium mixed with H2O2 (aq) represented negative control (all cells died).
The cytotoxicities of S1 and its analogs on human lung cancer cells (i.e, PC9, PC9-G and A549), human oral cancer cells (i.e, C9, OECM-1, and SAS), and human fibroblast (HFW) were evaluated by MTT assay for 3, 12 and 24 hours.

caspase 3 in PC9 = assay: Western blot for activated caspase 3, PC9; type: cell-based, human; conditions: 12 μM
Protocol: PC9 cells were seeded in 10-cm polystyrene dishes for 48 hours. About seventy percent full of cells were treated with 12 μM K4R2Nal2S1 for 10 minutes, 1 hour or 24 hours. RPMI medium without peptide treated for 24 hours which was used as negative control.
Cells were collected by 200 μl RIPA and protease inhibitor blended buffer. After sonication and centrifugation for 10 minutes, 13000 rpm at 4° C., supernatants (lysis of cell) were collected. Protein concentrations of cell extracts were determined by Bradford reagent. Equal amount of boiled lysates (total 50 μg) were separated on 10% acrylamide gel. The gel was transferred to PVDF membrane in electro-blot system, 300 V, […], and 80 minutes.
The membrane was incubated in blocking buffer (5% skim milk, TBST buffer) for 1 hour at room temperature and washed in TBST buffer twice. Blocked membrane was incubated with Caspase-3 antibody (EPITOMICS, clone ID: E83-77) overnight at 4° C., washed for five times, and then incubated in secondary antibody (HRP, GeneTex catalogue number: GTX21311-01) for 1 hour at room temperature. The signals were visualized by enhanced chemiluminescence (ECL) and recorded by a detected system (ImageQuant LAS 4000 mini).

[1] = tested on: PC9 human lung cancer cells; type: in vivo, male nude mice
Protocol: 12 male nude mice (BALB/cAnN.Cg-Foxn1nu/CrlNarl) were purchased from National Laboratory Animal Center, Taiwan.
100 μl human lung cancer cell PC9 (3×10^6 cells) in Matrigel (Corning) was injected subcutaneously into the dorsal side of 5-week-old male nude mice. Each mouse was inoculated two sites on its back (Taguchi F, Koh Y, Koizumi F, Tamura T, Saijo N, et al. (2004) Anticancer effects of ZD6474, a VEGF receptor tyrosine kinase inhibitor, in gefitinib (“Iressa”)-sensitive and resistant xenograft models. Cancer Sci 95: 984-989.). 1 week 5 days after implantation (cancer size>95 mm^3), 12 mice were allocated randomly into two group. One group was received K4R2Nal2S1 (5 mg/Kg, dissolving in 100 μl PBS buffer) by tail vein injection three times a week, the other group was injected PBS as control.
Body weight and cancer size were measured three times a week. The cancer volume was calculated by formula of width^2×length×0.52. The cancer volume below 100% of the pretreatment volume was defined as “cancer reduction” (Taguchi F, Koh Y, Koizumi F, Tamura T, Saijo N, et al. (2004) Anticancer effects of ZD6474, a VEGF receptor tyrosine kinase inhibitor, in gefitinib (“Iressa”)-sensitive and resistant xenograft models. Cancer Sci 95: 984-989.). “Cancer reduction” was confirmed when the mice were dissected.
The mice were sacrificed after treatment of 40 days, the cancers were removed, photographed, and weighed. All animal experiments were performed in accordance with the animal guidelines of the National Tsing Hua University Institutional Animal Care and approved by Animal Care Committee.
Solid cancers were fixed in 4% formaldehyde buffer. Paraffin-embedded tissues were cut to 2 μm-thickness sections, and deparaffinized in ultraclear buffer (J.T. Baker) and graded ethanol. The morphology of cancers was obtained by Hematoxylin and eosin (H&E) stained sections. In addition, the sections were immunostained with anti-cleaved-PARP (1:100) antibody (Cell Signaling, clone number: D65E10).
Tissue images were captured using light microscope (Eclipse E400, Nikon) with digital microscopy camera (AxioCam ICc 5, ZEISS), at 40×, 200× and 400× fields.
To evaluate the anticancer effect of K4R2Nal2-S1 peptide in vivo, PC9 cells were implanted subcutaneously to nude mice (see FIG. 7A) and followed by K4R2-Nal2-S1 injection via the intravenous route, at a dose of 5 mg/kg, three times weekly (FIGS. 7B and 7C).
To examine the involvement of necrosis and apoptosis in K4R2Nal2-S1 peptide mediated anticancer effect, lung tumors generated in the xenograft mouse model were excised and analyzed by Hematoxylin and eosin (H&E) staining and immunohistochemistry for cleaved PARP, a marker for cell apoptosis.

HaCaT cells = assay: Cell migration assay (in vitro wound healing assay); type: cell-based; conditions: different concentrations of peptide; 12 and 24 h
Protocol: HaCaT cells (40,000) suspended in DMEM medium supplemented with 10% fetal bovine serum were seeded on each side of an ibidi culture insert (ibidi, Germany). Inserts were placed into 24-well plate. After incubated at 37° C. and 5% CO2 overnight, inserts were removed and 1 ml of serum-free DMEM medium supplemented with different concentrations of peptide was added. Medium without peptide and with 100 ng/ml EGF (epidermal growth factor) were negative and positive controls. At 0, 12 and 24 h, the images of injury area were observed using the Inverted Fluorescent Microscope Zeiss/Observer.Z1 (10×). Wound area was estimated by Adobe Photoshop. The repairing rate was calculated: repairing rate=(areat0−areat12,24)/areat0, wherein t represents time.

[2] = 5 mg/kg i.v., three times weekly, harvested 40 days after injection

## CC(=O)N[C@@H](CCCCN)C(=O)N[C@@H](CCCCN)C(=O)N[C@@H](CCCCN)C(=O)N[C@@H](CCCCN)C(=O)N[C@@H](CCCNC(=N)N)C(=O)N[C@@H](CCCNC(=N)N)C(=O)N[C@@H](Cc1ccc2ccccc2c1)C(=O)N[C@@H](Cc1ccc2ccccc2c1)C(=O)N[C@@H](CCCCN)C(=O)N[C@@H](CCCCN)C(=O)N[C@@H](Cc1c[nH]c2ccccc12)C(=O)N[C@@H](CCCNC(=N)N)C(=O)N[C@@H](CCCCN)C(=O)N[C@@H](Cc1c[nH]c2ccccc12)C(=O)N[C@@H](CC(C)C)C(=O)N[C@@H](C)C(=O)N[C@@H](CCCCN)C(=O)N[C@@H](CCCCN)C(N)=O [K4R2-Nal2-S1, Ac-KKKKRR-Nal-Nal-KKWRKWLAKK-NH2] (Ac-KKKKRR[2Nal][2Nal]KKWRKWLAKK-NH2)
Human fibroblast (HFW)
  degrees of cytotoxicities to HFW (rank order): S1 peptide<K4R2-Nal2-S1 peptide<K6-Nal2-S1 peptide<Nal2-S1 peptide
Caspase 3 in PC9
  caspase 3 activation (immunoblotting): activated caspase 3
[1]; 5 mg/kg i.v., three times weekly
  tumor growth: significant inhibition
[1]; [2]
  volume of tumors harvested: decreased
  weight of tumors harvested: decreased
[1]; 46th day after implantation, 6 mice×2 side implantation, 12 in the PBS group
  number of exposed tumors: 7
[1]; excised xenograft tumors
  necrosis in tumors (H&E staining): large scale of necrosis regions
[1]; excised xenograft tumors, next to the necrosis regions
  cleaved PARP expression (immunohistochemistry): increased expression of cleaved PARP
HaCaT cells
  wound healing (repairing rate) compared to negative control: better effects of wound healing
